Laboratory results reported in publication PMC11393688, “Design and synthesis of new 1,2,4-oxadiazole/quinazoline-4-one hybrids with antiproliferative activity as multitargeted inhibitors” (Frontiers in Chemistry, 2024).

How the values were obtained:
A-549 cells = experiment: Apoptosis induction assay, Annexin V/PI flow cytometry; assay type: cell-based, human; conditions: A-549, Annexin V/PI, 24 h
Experimental: To assess 9b′s potential to induce apoptosis, A-549 cells were labeled with Annexin V/PI, grown for 24 h, and evaluated.
Compound 9b was investigated for its effects on cell cycle progression and apoptosis induction in A-549 cells. […] The cell line was labeled with PI/Annexin V, and flow cytometry was done with a BD FASC Caliber ([El-Sherief et al., 2018]). See Supplementary Appendix A for more details. […]
served as positive control. To study the effect of compounds on cell-based pERK1/2 activity in cancer cells, commercially available ELISA kits (Invitrogen) were used according to manufacturer’s instructions.
4.2.1.6. Cell apoptosis assay
Apoptosis was determined by flow cytometry based on the Annexin-V-fluoresce in isothiocyanate (FITC) and propidium iodide (PI) staining kit (BD Pharmingen, San Diego, USA).
(FITC) and propidium iodide (PI) staining kit (BD Pharmingen, San Diego, USA). Apoptotic cells were defined as Annexin-V-positive. Cells were grown to approximately ∼70% confluence and exposed to different concentrations of compounds (0, 2, 4, 6 and8 μmol/L) for 24 h. […] Subsequently, cells were analyzed by flow cytometry (Becton Dickinson, Franklin Lakes, and USA). […]
Computerized Prism 5 program was used to statistically analyzed data using one-way ANOVA test followed by Tukey’s as post ANOVA for multiple comparison at P ≤.05. […]

[1] = test system: four human cancer cell lines (HT-29, Panc-1, A-549, MCF-7); experiment: Average antiproliferative activity (GI50) over four cancer cell lines; assay type: cell-based; conditions: average IC50 against the four cancer cell lines
Experimental: (§1) 4.2.1.2. Assay for antiproliferative effect
(§2) To explore the antiproliferative potential of compounds MTT assay was performed according to previously reported procedure using different cell lines to explore the antiproliferative potential of […]
(§3) calculate the total nuclear DNA, a fluorescent dye (propidium iodide, PI) is used which can attach to the DNA, thus offering a quick and precise technique. PI cannot pass through the cell membrane and its signal intensity can be considered as directly proportional to quantity of cellular DNA.
(§4) Cells whose cell membranes are damaged or have changed permeability are counted as dead ones.
(§5) The assay was performed by seeding the cells of different cell lines at a density of 3000-7500 cells/well (in 200µl medium) in culture plates followed by incubation for 24h at 37 °C in humidified 5% CO2/95% air atmospheric conditions. The medium was removed; the compounds were added to the plates at 10 µM concentrations (in 0.1% DMSO) in triplicates, followed by incubation for 48 h. DMSO (0.1%) was used as control. After incubation, medium was removed […]
(§6) 80 °C, the plates were allowed to freeze for 24 h, followed by thawing at 25 °C. […]
(§7) (Polar-Star BMG Tech) was used to record the readings at excitation and emission wavelengths of 530 and 620 nm for each well. The percentage cytotoxicity of compounds was calculated using […]
(§8) Where ATC= Absorbance of treated cells and AC= Absorbance of control. Erlotinib was used as positive control in the assay.

BRAF^V600E = target: T1, BRAF^V600E (Homo sapiens, UniProt P15056, V600E); experiment: BRAF^V600E kinase inhibitory assay; assay type: biochemical, Mouse; conditions: read-out: BRAF^V600E inhibition IC50 ± SEM
T1 construct: Mouse full-length GST-tagged BRAFV600E; GST; purchased Invitrogen PV3849
T1 sequence (P15056 2-766 V600E limits assumed): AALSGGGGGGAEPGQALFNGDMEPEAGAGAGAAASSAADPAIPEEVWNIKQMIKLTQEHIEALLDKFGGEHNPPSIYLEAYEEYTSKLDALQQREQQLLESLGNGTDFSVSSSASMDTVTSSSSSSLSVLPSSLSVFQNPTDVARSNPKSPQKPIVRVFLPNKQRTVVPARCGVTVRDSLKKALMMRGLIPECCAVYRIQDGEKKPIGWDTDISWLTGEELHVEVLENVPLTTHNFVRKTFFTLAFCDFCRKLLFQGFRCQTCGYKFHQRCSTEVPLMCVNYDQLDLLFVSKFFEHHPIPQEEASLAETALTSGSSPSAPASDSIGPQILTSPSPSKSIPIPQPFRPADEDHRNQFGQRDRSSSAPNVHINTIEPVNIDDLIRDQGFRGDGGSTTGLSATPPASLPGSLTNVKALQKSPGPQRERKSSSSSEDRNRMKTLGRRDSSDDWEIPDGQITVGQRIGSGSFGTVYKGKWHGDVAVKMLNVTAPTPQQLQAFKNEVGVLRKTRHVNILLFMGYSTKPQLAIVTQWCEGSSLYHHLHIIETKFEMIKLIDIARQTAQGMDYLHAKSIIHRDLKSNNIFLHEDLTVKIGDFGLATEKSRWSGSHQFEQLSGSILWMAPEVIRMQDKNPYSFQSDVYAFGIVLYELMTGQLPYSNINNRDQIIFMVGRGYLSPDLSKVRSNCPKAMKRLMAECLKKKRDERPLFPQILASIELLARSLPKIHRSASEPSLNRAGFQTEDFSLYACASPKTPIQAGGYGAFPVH
Experimental: Refer to Supplementary Appendix A for more details. […]
4.2.1.4. BRAF kinase assay […]
against BRAF. Mouse full-length GST-tagged BRAFV600E (7.5 ng, Invitrogen, PV3849) was pre-incubated with drug (1 µL) and assay dilution buffer (4 µL) for 60 min at 25 °C. In assay dilution buffer, a solution (5 µL) containing MgCl2 (30 mM), ATP (200 µM), recombinant human full length (200 ng) […] N-terminal His-tagged MEK1 (Invitrogen) was added to start the assay, subsequent to incubation for 25 min at 25 °C. The assay was stopped using 5X protein denaturing buffer (LDS) solution (5 µL). To further denature the protein, heat (70° C) was applied for 5 min.
10 µL of each reaction was loaded into the precast plates and electrophoresis was allowed to proceed. After completion of electrophoresis, the front part of the precast gel plate (holding hot ATP) was cut and afterwards cast-off. The dried gel was developed using a phosphor screen. A […]
served as positive control. […]
(FITC) and propidium iodide (PI) staining kit (BD Pharmingen, San Diego, USA). […]
4.3. Statistical analysis
Computerized Prism 5 program was used to statistically analyzed data using one-way ANOVA test followed by Tukey’s as post ANOVA for multiple comparison at P ≤.05. Data were presented

[2] = test system: lung cancer (A-549) cell line; experiment: Antiproliferative MTT assay, A-549; assay type: cell-based; conditions: Homo sapiens, A549, A-549 lung cancer cells, read-out: Antiproliferative activity IC50 ± SEM A-549
Experimental: as §1, §2, §3, §4, §5, §6, §7, §8

[3] = test system: pancreatic cancer (Panc-1) cell line; experiment: Antiproliferative MTT assay, Panc-1; assay type: cell-based; conditions: Homo sapiens, Panc-1 pancreatic cancer cells, read-out: Antiproliferative activity IC50 ± SEM Panc-1
Experimental: as §1, §2, §3, §4, §5, §6, §7, §8

EGFR^T790M = EGFR^T790M (Homo sapiens, UniProt P00533, T790M); experiment: EGFR^T790M inhibitory assay (HTRF KinEASE-TK)
EGFR^T790M, sequence (P00533 25-1210 T790M): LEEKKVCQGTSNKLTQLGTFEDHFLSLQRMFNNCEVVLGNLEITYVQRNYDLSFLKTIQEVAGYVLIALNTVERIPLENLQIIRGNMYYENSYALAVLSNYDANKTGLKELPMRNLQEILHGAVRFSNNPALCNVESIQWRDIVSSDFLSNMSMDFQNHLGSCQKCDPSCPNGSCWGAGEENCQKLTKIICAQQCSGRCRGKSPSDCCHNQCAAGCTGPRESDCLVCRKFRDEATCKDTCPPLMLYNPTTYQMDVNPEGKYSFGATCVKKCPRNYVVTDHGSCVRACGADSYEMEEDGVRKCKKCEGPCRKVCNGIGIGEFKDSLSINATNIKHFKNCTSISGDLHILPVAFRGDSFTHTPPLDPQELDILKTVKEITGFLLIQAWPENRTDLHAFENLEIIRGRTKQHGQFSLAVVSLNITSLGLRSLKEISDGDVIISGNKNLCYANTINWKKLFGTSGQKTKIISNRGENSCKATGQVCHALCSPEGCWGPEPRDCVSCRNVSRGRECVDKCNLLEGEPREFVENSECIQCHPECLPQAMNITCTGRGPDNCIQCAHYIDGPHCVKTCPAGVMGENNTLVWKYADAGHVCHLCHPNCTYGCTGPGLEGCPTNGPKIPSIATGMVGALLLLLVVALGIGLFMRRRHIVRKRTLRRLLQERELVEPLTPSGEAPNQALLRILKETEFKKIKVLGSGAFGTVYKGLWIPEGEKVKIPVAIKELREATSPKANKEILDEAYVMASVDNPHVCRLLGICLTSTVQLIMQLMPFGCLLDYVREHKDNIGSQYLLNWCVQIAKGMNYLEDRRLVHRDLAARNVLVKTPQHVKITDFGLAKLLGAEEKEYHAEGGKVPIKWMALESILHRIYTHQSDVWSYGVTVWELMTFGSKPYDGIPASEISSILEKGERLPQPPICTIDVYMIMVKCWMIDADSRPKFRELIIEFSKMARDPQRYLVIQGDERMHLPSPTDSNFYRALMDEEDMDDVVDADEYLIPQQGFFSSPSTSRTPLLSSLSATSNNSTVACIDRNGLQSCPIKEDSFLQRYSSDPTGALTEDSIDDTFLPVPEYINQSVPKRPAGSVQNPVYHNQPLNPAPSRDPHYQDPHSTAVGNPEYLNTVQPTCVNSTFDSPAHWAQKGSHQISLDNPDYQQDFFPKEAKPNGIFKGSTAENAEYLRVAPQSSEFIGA

EGFR = target: T2, EGFR (Homo sapiens, UniProt P00533); experiment: EGFR-TK inhibitory assay; assay type: biochemical; conditions: read-out: EGFR inhibition IC50 ± SEM
T2 construct: amino acids 645–1186; His6 (N); made in house; host or cells: Sf-9 insect cells (baculovirus; pBlueBacHis2B / pFASTBacHTc)
T2 sequence (P00533 669-1210): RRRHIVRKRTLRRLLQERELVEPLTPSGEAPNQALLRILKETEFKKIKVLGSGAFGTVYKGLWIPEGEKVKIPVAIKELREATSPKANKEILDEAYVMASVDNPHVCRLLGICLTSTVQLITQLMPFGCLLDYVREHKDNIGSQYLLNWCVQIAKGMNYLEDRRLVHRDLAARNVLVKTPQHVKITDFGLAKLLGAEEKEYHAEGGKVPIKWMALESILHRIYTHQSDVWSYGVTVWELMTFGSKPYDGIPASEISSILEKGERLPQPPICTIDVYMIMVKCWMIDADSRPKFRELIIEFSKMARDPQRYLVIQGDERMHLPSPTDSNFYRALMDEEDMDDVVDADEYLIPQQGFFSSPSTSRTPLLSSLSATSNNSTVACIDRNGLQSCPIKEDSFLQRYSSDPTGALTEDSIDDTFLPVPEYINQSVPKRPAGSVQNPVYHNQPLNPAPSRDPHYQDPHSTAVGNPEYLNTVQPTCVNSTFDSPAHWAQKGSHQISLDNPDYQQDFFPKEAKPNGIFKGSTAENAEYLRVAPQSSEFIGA
Experimental: 4.2.1.3. EGFR inhibitory assay
Sf-9 cells were infected for 72h for protein expression. […]
centrifugation for 20 min.
Histidine-linked proteins were first eluted with 250 and then […]
using wash buffer. Europium-tagged antiphosphotyrosine antibody (75 µL, 400 ng) was added to each well followed by incubation of 1h and then washing of the plates using buffer. The enhancement solution was added to each well and the signal was recorded at excitation and […]
The autophosphorylation percentage inhibition by compounds was calculated using the following equation: […]
(1 picture or pasted object on this page, not shown here)

[4] = test system: breast cancer (MCF-7) cell line; experiment: Antiproliferative MTT assay, MCF-7; assay type: cell-based; conditions: Homo sapiens, MCF7, MCF-7 breast cancer cells, read-out: Antiproliferative activity IC50 ± SEM MCF-7
Experimental: as §1, §2, §3, §4, §5, §6, §7, §8

GI50 [1]: 24 nM
IC50 (BRAF^V600E): 48 ± 4 nM
IC50 [2]: 22 ± 2 nM
IC50 [3]: 24 ± 2 nM
IC50 (EGFR^T790M): 10 ± 1 nM
IC50 (EGFR): 57 ± 4 nM
IC50 [4]: 26 ± 2 nM
SMILES: O=c1c2ccccc2nc(SCc2nc(-c3ccc(Cl)cc3)no2)n1-c1ccccc1 [Compound 9b, 2-((3-(4-Chlorophenyl)-1,2,4-oxadiazol-5-yl)methylthio)-3 phenylquinazolin-4(3H)-one]
Necrosis percentage (A-549 cells): 6.43%
